Measured values published in patent publication US5776970A, “Tryptophan derivatives as protein tyrosine kinase blockers and their use in the treatment of neoplastic diseases” (Yeda Research and Development Co. Ltd., priority 1994, dated 1998).

Columns and labels:
[1] = tested on: isoproterenol-mediated lipolysis; experiment: isoproterenol-mediated lipolysis in rat adipocytes (glycerol release); format: cell-based; conditions: isoproterenol 1 μM alone
Procedure: In general there are two classes of protein kinases (PKs) in mammalian tissues: (a) PKs which phosphorylate tyrosine moieties in proteins (to phosphotyrosine), and (b) PKs which phosphorylate serine and threonine moieties (to phosphoserine and phosphotreonine). […] An example for such a metabolic effect is lipolysis which depends on protein kinase A. Rat adipocytes (prepared by the method of Rodbell, 1964) were incubated with isoproterenol alone (1 μM) or isoproterenol with CBZ-DNPS-TRP-TAU (200 μM) for one hour at 37° C. The amount of glycerol released from the cells was then determined by spectroscopic procedure (Shechter, 1982).

rat adipocytes = experiment: permeability into cell interiors (intact cell system, lipogenesis); format: cell-based; conditions: graded in words
Procedure: Rat adipocytes were prepared essentially by the method of Rodbell, 1964. The fat pads of three rats were cut into small pieces with scissors and digested in 3 ml of Krebs-Ringer-Bicarbonate (KRB)-buffer containing 0.7% bovine serum albumin (BSA) (pH 7.4) with collagenase (1 mg/ml). The digestion was performed in a 25 ml flexible plastic bottle under an atmosphere of carbogen (95% O2, 5% CO2) for 40 min at 37° C. with vigorous shaking. Five ml of buffer was then added, and the cells were squeezed through a mesh screen. The cells were then allowed to stand for several minutes (in a 15 ml plastic test tube at room temperature, floating) and the buffer underneath was removed. This procedure (suspension, floating and removal of buffer underneath) was repeated three times. For [^14 C-U]glucose incorporation (lipogenesis), the fat cell suspensions (3×10^5 cells/ml) were divided into plastic vials (0.5 ml per vial) and incubated for 60 min at 37° C. under an atmosphere of 95% O2, 5% CO2, with 0.2 mM [U-^14 C]glucose, in either the presence or absence of insulin (100 ng/ml) and the indicated concentrations in FIG. 2 of CBZ-DNPS-TRP-TAU. The reaction was terminated by adding toluene-based scintillation fluid (1.0 ml per vial) and the extracted lipids were counted (Shechter and Karlish, 1980). Fat cell suspensions were pre-incubated for 20 min at 37° C. with increasing concentrations of the inhibitors. Results are expressed in FIG. 2 as the percent of maximal stimulation at the indicated concentrations of inhibitors. In all experiments insulin-stimulated lipogenesis was 4- to 5-fold higher than basal; basal ~2000 cpm per 3×10^5 cells/h; Vinsulin 8000-10,000 cpm per 3×10^5 cells/h.
(§1) Various derivatives according to the invention in which R^1 is benzyloxycarbonyl (CBZ) or t-butoxycarbonyl (t-Boc), R^2 is --SO3 H or --PO3 H, n is 1,2 or 3, and R^3 is H, 2-nitrophenylthio (NPS) or 2,4-dinitrophenylthio (DNPS) were prepared and examined in cell-free and intact cell systems. The cell-free assay is PolyGlu4 Tyr phosphorylation by partially purified insulin receptor as described in Example 3. The assay in intact cells (namely, lipogenesis) was carried out as described in Example 4.

[2] = target: T1, insulin receptor tyrosine kinase (InsRTK) (Rattus norvegicus, UniProt P15127); experiment: PolyGlu4 Tyr phosphorylation by partially purified (wheat-germ-agglutinin purified) rat liver insulin receptor, cell-free; format: biochemical; set-up: wheat-germ-agglutinin purified rat liver insulin receptor; from tissue; host or cells: rat liver (wheat-germ-agglutinin purified); conditions: for Relative cell-free potency in inhibiting InsRTK: CBZ-DNPS-TRP-Taurine 100
Procedure: An assay of PolyGlu4 Tyr phosphorylation by partially purified insulin receptor was run for 30 min at 22° C. in 60 μl of 50 mM Hepes (pH 7.4)-0.1% Triton X-100 containing wheat-germ-agglutinin purified rat liver insulin receptor (1 μg protein), MgCl2 25 mM; MnCl2, 1 mM, ATP 17 μM, insulin 0.1 μM, PolyGlu4 Tyr, 0.17 mg/ml and the indicated concentrations in FIG. 1 of CBZ-DNPS-TRP-TAU. Phosphotyrosine content in PolyGlu4 Tyr was determined by a radioimmunoassay procedure (Shisheva et al., 1991). […] The inhibitory potency of other derivatives of formula I on InsRTK-catalyzed PolyGlu4 Tyr phosphorylation in cell-free experiments was determined. […] For comparison, the IC50 values for AC-TRP-TAU and L-tryptophan are 5 mM and >30 mM, respectively.
as §1
Target sequence in this assay (P15127 764-1383 limits assumed): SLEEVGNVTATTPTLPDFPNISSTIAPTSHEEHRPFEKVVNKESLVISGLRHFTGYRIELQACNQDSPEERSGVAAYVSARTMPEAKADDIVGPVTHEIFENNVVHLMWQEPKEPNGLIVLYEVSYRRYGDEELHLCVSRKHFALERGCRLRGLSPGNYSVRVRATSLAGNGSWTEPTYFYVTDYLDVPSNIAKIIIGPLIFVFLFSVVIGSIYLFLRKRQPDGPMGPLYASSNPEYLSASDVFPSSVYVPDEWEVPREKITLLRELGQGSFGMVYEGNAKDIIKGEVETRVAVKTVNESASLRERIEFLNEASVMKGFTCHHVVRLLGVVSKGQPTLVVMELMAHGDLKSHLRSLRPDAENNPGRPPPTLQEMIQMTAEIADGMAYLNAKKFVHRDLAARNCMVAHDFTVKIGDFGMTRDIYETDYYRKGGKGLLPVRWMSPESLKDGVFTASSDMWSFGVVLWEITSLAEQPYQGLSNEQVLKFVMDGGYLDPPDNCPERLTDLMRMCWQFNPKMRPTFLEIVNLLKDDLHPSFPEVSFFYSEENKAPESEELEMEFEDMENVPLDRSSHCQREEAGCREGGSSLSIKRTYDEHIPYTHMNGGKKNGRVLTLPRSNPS
Target sequence in this assay (P15127 27-759 partner limits assumed): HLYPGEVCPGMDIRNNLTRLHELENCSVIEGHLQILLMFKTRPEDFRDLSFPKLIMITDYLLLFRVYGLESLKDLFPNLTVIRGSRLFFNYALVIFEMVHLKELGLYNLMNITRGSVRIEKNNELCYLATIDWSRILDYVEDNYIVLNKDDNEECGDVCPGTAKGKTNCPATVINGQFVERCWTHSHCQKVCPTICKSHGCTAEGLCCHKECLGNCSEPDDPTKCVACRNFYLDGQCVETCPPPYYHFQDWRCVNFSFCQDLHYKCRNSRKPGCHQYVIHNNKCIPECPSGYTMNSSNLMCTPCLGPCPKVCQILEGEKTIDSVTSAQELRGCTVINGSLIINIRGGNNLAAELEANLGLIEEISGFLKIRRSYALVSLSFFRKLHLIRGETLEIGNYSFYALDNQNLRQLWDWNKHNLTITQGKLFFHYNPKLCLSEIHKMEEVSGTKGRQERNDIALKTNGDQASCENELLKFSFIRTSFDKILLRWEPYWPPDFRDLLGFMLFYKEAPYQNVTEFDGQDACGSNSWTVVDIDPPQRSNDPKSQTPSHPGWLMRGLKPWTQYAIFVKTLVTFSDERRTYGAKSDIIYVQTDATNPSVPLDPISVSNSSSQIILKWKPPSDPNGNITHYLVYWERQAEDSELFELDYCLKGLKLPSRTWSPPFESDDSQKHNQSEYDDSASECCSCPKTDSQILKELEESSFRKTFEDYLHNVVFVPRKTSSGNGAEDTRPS

solubility = conditions: water
[3] = tested on: insulin-stimulated lipogenesis in rat adipocytes; experiment: insulin-stimulated lipogenesis in rat adipocytes ([U-14C]glucose incorporation); format: cell-based; conditions: insulin 100 ng/ml
Procedure: The fat pads of three rats were cut into small pieces with scissors and digested in 3 ml of Krebs-Ringer-Bicarbonate (KRB)-buffer containing 0.7% bovine serum albumin (BSA) (pH 7.4) with collagenase (1 mg/ml). […] Five ml of buffer was then added, and the cells were squeezed through a mesh screen. The cells were then allowed to stand for several minutes (in a 15 ml plastic test tube at room temperature, floating) and the buffer underneath was removed. This procedure (suspension, floating and removal of buffer underneath) was repeated three times. […] Fat cell suspensions were pre-incubated for 20 min at 37° C. with increasing concentrations of the inhibitors. Results are expressed in FIG. 2 as the percent of maximal stimulation at the indicated concentrations of inhibitors.

[4] = tested on: murine T-cell lymphoma (LB3); experiment: insulin-dependent proliferation of murine T-cell lymphoma (LB3), thymidine incorporation; format: cell-based; conditions: 30,000 LB3 cells; insulin or other mitogens
Procedure: LB cells were removed from the peritoneal cavity of BALB/c mice, washed and resuspended in RPMI-1640. Then a continuous line designated LB3 was established in "LB medium" (50% RPMI-1640 plus 50% DCCM-1 in 10% fetal calf serum (FCS)). The LB3 cells were incubated (37° C., 5% CO2) in microplate wells (Nunc, Roskilde, Denmark) with 0.2 ml RPMI-1640 alone and in the same medium containing insulin, fetal calf serum (FCS) or both, and different concentrations of the compound CBZ-DNPS-TRP-TAU as indicated in FIG. 3. Proliferation capacity was determined by thymidine incorporation (^3 H-TdR, 1 μCi/well, specific activity 5 Ci/mM), added to the cells 24 hours later. In a typical experiment, cpm of ^3 H-thymidine incorporated into 30,000 cells was 12-14 fold higher in the presence of insulin or other mitogens than in their absence.

[5] = target: T1, insulin receptor tyrosine kinase (InsRTK); experiment: inactivation of InsRTK by affinity reagent; format: biochemical; conditions: covalent affinity reagent
Excerpt: Thus, to design and synthesize a low molecular weight blocker of InsRTK able to permeate into cell interiors, we first searched for an affinity reagent that would covalently bind and inactivate the InsRTK at low concentrations. […] The complementary hydrophilic domain of the InsRTK contains a lysine moiety that reacts covalently with the active ester and is likely to participate in substrate binding or catalysis. Equipped with this information we have synthesized a family of competitive inhibitors.
Target sequence in this assay (P15127 27-1383): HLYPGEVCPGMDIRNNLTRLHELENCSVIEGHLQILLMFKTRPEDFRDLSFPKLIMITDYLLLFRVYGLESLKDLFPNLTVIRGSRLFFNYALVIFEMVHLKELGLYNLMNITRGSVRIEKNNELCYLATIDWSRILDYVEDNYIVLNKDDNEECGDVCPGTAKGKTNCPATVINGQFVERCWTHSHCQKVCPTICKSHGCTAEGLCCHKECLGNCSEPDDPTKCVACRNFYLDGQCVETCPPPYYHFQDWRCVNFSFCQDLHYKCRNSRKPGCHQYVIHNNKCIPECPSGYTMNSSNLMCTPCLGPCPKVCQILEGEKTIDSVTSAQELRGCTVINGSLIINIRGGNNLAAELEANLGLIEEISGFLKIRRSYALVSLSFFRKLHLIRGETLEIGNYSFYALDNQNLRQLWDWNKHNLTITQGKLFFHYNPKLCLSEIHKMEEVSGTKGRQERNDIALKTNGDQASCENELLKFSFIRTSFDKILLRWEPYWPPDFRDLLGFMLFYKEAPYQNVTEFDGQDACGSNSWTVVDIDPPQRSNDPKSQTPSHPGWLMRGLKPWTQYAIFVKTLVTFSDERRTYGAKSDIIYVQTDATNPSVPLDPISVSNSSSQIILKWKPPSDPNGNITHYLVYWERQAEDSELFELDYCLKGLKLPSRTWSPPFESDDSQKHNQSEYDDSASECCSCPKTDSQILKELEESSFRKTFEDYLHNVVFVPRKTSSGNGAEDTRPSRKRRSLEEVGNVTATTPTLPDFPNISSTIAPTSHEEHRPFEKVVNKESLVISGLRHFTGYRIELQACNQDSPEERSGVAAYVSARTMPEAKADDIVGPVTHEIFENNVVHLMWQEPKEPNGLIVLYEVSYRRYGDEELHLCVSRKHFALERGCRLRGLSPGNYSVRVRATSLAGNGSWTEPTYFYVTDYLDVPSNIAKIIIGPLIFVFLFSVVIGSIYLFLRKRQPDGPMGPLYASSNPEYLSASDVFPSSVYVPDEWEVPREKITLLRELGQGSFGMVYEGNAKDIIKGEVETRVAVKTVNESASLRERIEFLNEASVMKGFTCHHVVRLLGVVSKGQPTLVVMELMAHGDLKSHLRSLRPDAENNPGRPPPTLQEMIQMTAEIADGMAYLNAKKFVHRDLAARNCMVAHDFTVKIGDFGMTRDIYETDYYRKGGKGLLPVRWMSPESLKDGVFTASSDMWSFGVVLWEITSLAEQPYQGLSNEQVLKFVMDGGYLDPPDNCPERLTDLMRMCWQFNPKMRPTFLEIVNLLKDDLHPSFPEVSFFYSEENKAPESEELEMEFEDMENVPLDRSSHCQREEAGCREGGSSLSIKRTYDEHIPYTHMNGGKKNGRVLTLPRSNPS

[6] = cell-free, 30 min, 22° C., pH 7.4, ATP 17 μM, insulin 0.1 μM, read-out: IC50 value, InsRTK-catalyzed PolyGlu4 Tyr phosphorylation

Row | Compound | Permeability into cell interiors (rat adipocytes) | Relative cell-free potency in inhibiting InsRTK [2] | also measured
1 | CC(C)NCC(O)c1ccc(O)c(O)c1 (centres unmarked) [Isoproterenol, isoproterenol, reference compound] | – | – | activity at 1 µM ([1]; Rattus norvegicus, Adipocyte, read-out: Percent lipolysis): 100%; Amount of glycerol released [1]: 165 nmol/3 × 10^5 cells/3 h
2 | O=C(N[C@@H](Cc1c(Sc2ccccc2[N+](=O)[O-])[nH]c2ccccc12)C(=O)NCCS(=O)(=O)O)OCc1ccccc1 [CBZ-NPS-TRP-TAU] | good | 30% | IC50 [2, 6]: 550 µM
3 | CC(=O)N[C@@H](Cc1c[nH]c2ccccc12)C(=O)NCCS(=O)(=O)O [AC-TRP-TAU, reference compound] | – | – | IC50 [2, 6]: 5000 µM
4 | CC(C)(C)OC(=O)N[C@@H](Cc1c(Sc2ccc([N+](=O)[O-])cc2[N+](=O)[O-])[nH]c2ccccc12)C(=O)NCCCS(=O)(=O)O [tBoc-DNPS-TRP-aminopropyl-SO3, tBoc-DNPS-TRP-aminopropylsulfonic acid] | excellent | 90% | –
5 | CC(C)(C)OC(=O)N[C@@H](Cc1c(Sc2ccc([N+](=O)[O-])cc2[N+](=O)[O-])[nH]c2ccccc12)C(=O)NCCS(=O)(=O)O [tBoc-DNPS-TRP-Taurine, tBoc-DNPS-TRP-aminoethylsulfonic acid] | excellent | 95% | –
6 | O=C(N[C@@H](Cc1c[nH]c2ccccc12)C(=O)NCCCS(=O)(=O)O)OCc1ccccc1 [CBZ-TRP-β-TAU] | – | – | IC50 [2, 6]: 3500 µM
7 | O=C(N[C@@H](Cc1c(Sc2ccc([N+](=O)[O-])cc2[N+](=O)[O-])[nH]c2ccccc12)C(=O)NCS(=O)(=O)O)OCc1ccccc1 [CBZ-DNPS-TRP-aminomethyl-SO3, CBZ-DNPS-TRP-aminomethylsulfonic acid] | excellent | 90% | –
8 | CC(=O)N[C@@H](Cc1c(Sc2ccc([N+](=O)[O-])cc2[N+](=O)[O-])[nH]c2ccccc12)C(=O)NCCS(=O)(=O)O [Acetyl-DNPS-TRP-Taurine] | poor | 80% | Permeability into cell interiors (rat adipocytes; listed as acetyl-DNPS-TRP-TAU): low permeability; inhibition of InsRTK in words ([2]; cell-free experiments): inhibits InSRTK
9 | CC(C)(C)OC(=O)N[C@@H](Cc1c(Sc2ccc([N+](=O)[O-])cc2[N+](=O)[O-])[nH]c2ccccc12)C(=O)NCS(=O)(=O)O [tBoc-DNPS-TRP-aminomethyl-SO3, tBoc-DNPS-TRP-aminomethylsulfonic acid] | excellent | 80% | –
10 | O=C(N[C@@H](Cc1c[nH]c2ccccc12)C(=O)NCCS(=O)(=O)O)OCc1ccccc1 [CBZ-TRP-TAU] | poor | 20% | solubility (solubility): ≤ 1300 mM; IC50 [2, 6]: 2700 µM
11 | CC(C)CC(NC(=O)OCc1ccccc1)C(=O)NCCS(=O)(=O)O (centres unmarked) [CBZ-leucine-Taurine, reference compound] | poor | 2% | –
12 | O=C(N[C@@H](Cc1c[nH]c2ccccc12)C(=O)NCP(=O)(O)O)OCc1ccccc1 [CBZ-TRP-aminomethyl-PO3] | poor | 5% | –
13 | N[C@@H](Cc1c[nH]c2ccccc12)C(=O)O [L-tryptophan, reference compound] | – | – | IC50 [2]: > 30000 µM
14 | insulin | – | – | Vinsulin (lipogenesis) [3]: 8000-10,000 cpm per 3×10^5 cells/h; 3H-thymidine incorporation in presence vs absence of insulin [4]: 12-14 fold
15 | O=C(O)CC(NC(=O)[C@H](Cc1c(Sc2ccc([N+](=O)[O-])cc2[N+](=O)[O-])[nH]c2ccccc12)NC(=O)OCc1ccccc1)C(=O)O (some centres unmarked) [CBZ-DNPS-TRP-Aspartic Acid] | good | 5% | –
16 | O=C(N[C@@H](Cc1c(Sc2ccc([N+](=O)[O-])cc2[N+](=O)[O-])[nH]c2ccccc12)C(=O)NCCCS(=O)(=O)O)OCc1ccccc1 [CBZ-DNPS-TRP-aminopropyl-SO3, CBZ-DNPS-TRP-aminopropylsulfonic acid] | excellent | 70% | –
17 | O=C(NC(Cc1ccccc1)C(=O)ON1C(=O)CCC1=O)OCc1ccccc1 (centres unmarked) [CBZ-Phe-OSU, benzyloxycarbonylphenyl-N-hydroxysuccinimide ester] | – | – | IC50 [5]: 50 µM
